This is an account of results in ChEMBL document CHEMBL5154927, “Discovery of Novel Bicyclic Phenylselenyl-Containing Hybrids: An Orally Bioavailable, Potential, and Multiacting Class of Estrogen Receptor Modulators against Endocrine-Resistant Breast Cancer” (J Med Chem, 2022).

The structures appear in SMILES notation. Calls of active or inactive are those of the source. The rule behind the calls is not given here.

Data set [1] in a line: Antiproliferative activity against human MCF-10A cells assessed as reduction in cell viability measured after 72 hrs by Cell Counting Kit-8 assay. The format is toxicity, cell-based. (In general: Formazan colour is commonly taken as a measure of viable cells.)
In data set [2] the test system is LCC2. The experiment in a line: Downregulation of hexokinase-1 expression in tamoxifen-resistant human LCC2 cell mitochondria at 20 uM measured after 24 hrs by DAPI staining based immunofluorescence microscopy. The format is functional.
Data set [3] deals with MCF7. The experiment in a line: Downregulation of hexokinase-1 expression in human MCF7 cell outer mitochondrial membrane at 1 to 16 uM measured after 24 hrs by Western blot analysis. The format is functional. As to conditions: Mitochondria, dose 1-16 µM. In general terms: A western blot detects proteins with antibodies after separation by electrophoresis.
Data set [4] concerns LCC2. The experiment in a line: Induction of ROS production in tamoxifen-resistant human LCC2 cells at 1 to 4 uM measured after 48 hrs by DCFH-DA staining based confocal laser scanning microscopic method. The format is functional, cell-based. As to conditions: dose 1-4 µM.
Data set [5] has as its system MCF7. The experiment in a line: Induction of mitochondrial membrane potential loss in human MCF7 cells at 1 uM incubated for 48 hrs by JC-1 staining based flow cytometry relative to control. The format is functional. On the technique in general: Flow cytometry measures light scatter and fluorescence of single cells or particles in a stream.
In data set [6] the test system is MCF7. Kind of data set: Induction of apoptosis in human MCF7 cells assessed as total apoptotic cells at 1 uM incubated for 48 hrs by annexin V-FITC staining based flow cytometry. The format is functional.
In data set [7] the test system is MCF7. The experiment in a line: Induction of apoptosis in human MCF7 cells assessed as total apoptotic cells at 4 uM incubated for 48 hrs by annexin V-FITC staining based flow cytometry. The format is functional.
For data set [8], the system named is MCF7. The experiment in a line: Induction of apoptosis in human MCF7 cells assessed as increase in late apoptotic cells at 0.5 to 4 uM incubated for 48 hrs by annexin V-FITC staining based flow cytometry. The format is functional, cell-based. The conditions noted are these: dose 0.5-4 µM.
Data set [9] has as its system LCC2. Kind of data set: Induction of apoptosis in tamoxifen-resistant human LCC2 cells assessed as increase in Bax level at 5 to 30 uM incubated for 48 hrs by western blot analysis. The format is functional, cell-based. The conditions noted are these: dose 5-30 µM.
Data set [10] concerns LCC2. Kind of data set: Induction of apoptosis in tamoxifen-resistant human LCC2 cells assessed as decrease in Bcl-2/Bax ratio by western blot analysis. The format is functional, cell-based. The conditions noted are these: DDE = dose-dependent effect.
The nature of data set [11]: Tmax in BALB/C mouse at 20 mg/kg, po by LC-MS/MS analysis. The format is ADME, organism-based. The conditions noted are these: in vivo.
Data set [12] is described as follows: AUC in BALB/C mouse at 5 mg/kg, iv by LC-MS/MS analysis. The format is ADME, organism-based. Also on record: dose 5 mg/kg, route iv. As to conditions: in vivo.
Data set [13] in a line: Volume of distribution at steady state in BALB/C mouse at 5 mg/kg, iv by LC-MS/MS analysis. The format is ADME, organism-based. The conditions noted are these: in vivo, read-out: Vdss.
A short description of data set [14]: Oral bioavailability in BALB/C mouse at 20 mg/kg by LC-MS/MS analysis. The format is ADME, organism-based. The conditions noted are these: in vivo.
Data set [15] has as its system LCC2. The experiment in a line: Induction of apoptosis in tamoxifen-resistant human LCC2 cells at 5 to 30 uM incubated for 48 hrs by annexin V-FITC staining based flow cytometry. The format is functional, cell-based. As to conditions: dose 5-30 µM.
Data set [16] concerns MCF7. Kind of data set: Antitumor activity against human MCF7 cells xenografted in BALB/C mouse assessed as suppression of tumor growth at 10 to 20 mg/kg, po measured every 2 days for 34 days. The format is functional, organism-based. As to conditions: dose 10-20 mg/kg, time 34.0 day.
A short description of data set [17]: Antitumor activity against tamoxifen-resistant human LCC2 cells xenografted in BALB/C mouse assessed as tumor growth inhibition at 20 mg/kg, po measured every 2 days for 22 days. The format is functional. The conditions noted are these: LCC2, 528 h, time 22 day, read-out: TGI.
Data set [18] is described as follows: Toxicity in BALB/C mouse xenografted with human MCF7 cells assessed as morphological changes in kidney at 10 to 20 mg/kg, po by hematoxylin and eosin staining based analysis. The format is organism-based. The conditions noted are these: in vivo, dose 10-20 mg/kg.
Data set [19] relates to LCC2. The experiment in a line: Induction of apoptosis in tamoxifen-resistant human LCC2 cells assessed as increase in late apoptotic cells at 5 to 30 uM incubated for 48 hrs by annexin V-FITC staining based flow cytometry. The format is functional, cell-based. As to conditions: dose 5-30 µM.
Data set [20] can be described thus: Toxicity in BALB/C mouse xenografted with tamoxifen-resistant human LCC2 cells assessed as effect on body weight at 20 mg/kg, po measured after 22 days. The format is organism-based. As to conditions: in vivo, 528 h, time 22 day.

On to `O=S(=O)(Oc1cccc2ccccc12)C1CC2OC1C(c1ccc([Se]c3ccccc3)cc1)=C2c1ccc(O)cc1` (stereo not given), for which the IC50 (in general, the concentration that inhibits the measured activity by half) at 72 h in [1] was > 60 µM. For the same compound, the result in data set [2], in [3], in [4], in data set [8], in [9] and in [15] was Active. The result in data set [16] and in data set [19] was Active. The Activity in data set [5] is 9.61%; in data set [6], 15.15%; in data set [7] it was 19.98%; in [10], “Dde”; in [18], “Non-Toxic”; in data set [20], “Non-Toxic”. Moreover, in data set [11], the Tmax (in general, the time at which the peak concentration occurs) was 2 h. Also, in [12], the AUC (usually the area under the concentration-time curve, a measure of exposure) was 1550 ng·h/mL. Moreover, the Vd in data set [13] is 21.6 L/kg. Also, the bioavailability (as a rule, the share of a dose that reaches the circulation, judged against a reference dose that is usually intravenous) in data set [14] came out at 23.2%. In addition, in data set [17], the inhibition in vivo at 20 mg/kg amounted to 57.3%.
